Laboratory results reported in article PMC12428582, “2-Styrylquinolines with Push-Pull Architectures as Sensors for β-Amyloid Aggregation with Theranostic Properties” (International Journal of Molecular Sciences, 2025).
Read-outs that look alike come from different tables or passages of the source.

What was measured:
[1] = system: caspase-3 activity in HEK293-Tau3R cells; assay: Caspase-3 activity in cells treated with okadaic acid (Ac-DEVD-AMC substrate); type: cell-based, human; details: for Caspase-3 activation induced by okadaic acid: 25 nM okadaic acid with compound at 10 or 100 nM; for Decrease of caspase-3 activity compared to cells treated with okadaic acid alone: 100 nM compound, 25 nM okadaic acid, p < 0.05
Protocol: HEK293-Tau3R cells in logarithmic growth phase were digested with trypsin at a concentration of 0.25% and then resuspended in the medium and subcultured in Petri dishes (100 × 15 mm) at a seeding density of 1.5 × 10^5 cells/mL. […] Upon completion of the treatment, cells were collected, washed twice with PBS (pH 7.4) and pelleted by centrifugation at 1000× g for 5 min. The pellet was then resuspended in PBS and centrifuged again at 1000× g for 10 min at 4 °C to remove the supernatant. The resulting cell pellets were lysed in a buffer containing 10 mM Tris–HCl (pH 7.5) with 0.5% CHAPS, 1 mM MgCl2, 1 mM EGTA, 1 mM EDTA, 10% glycerol, 5 mM β-mercaptoethanol, 1 mM DTT, 1 mM phenylmethylsulfonyl fluoride (PMSF), 100 μM leupeptin and 1 μM pepstatin. Following a 30 min incubation on ice, the lysates were clarified by centrifugation at 13,000× g for 5 min. Protein concentrations in the supernatants were determined using the bicinchoninic acid (BCA) assay.
The caspase 3 activity assay performed using the known fluorogenic substrate Ac-DEVD-AMC. HEK293-Tau3R cells were harvested, washed with ice-cold PBS and lysed in 100 μL of lysis buffer containing 50 mM HEPES (pH 7.4), 100 mM NaCl, 0.1% CHAPS, 10% glycerol, 10 mM DTT, 0.1 mM EDTA and protease inhibitors (1 μg/μL each of leupeptin, pepstatin and aprotinin). The lysates were, sonicated and centrifuged at 14,000× g for 15 min at 4 °C. For the assay, 20 μg of cellular protein from the lysates were incubated with 20 µM caspase 3 substrate in assay buffer (50 mM HEPES, pH 7.4, 100 mM NaCl, 0.1% CHAPS, 10% glycerol, 10 mM DTT) for 2 h at 37 °C. Substrate cleavage was monitored using a microplate fluorescence reader with excitation at 360 nm and emission at 460 nm. Caspase activity was determined based on the cleavage of the fluorogenic substrate and is expressed as fluorescence arbitrary units.

[2] = target: T1, AcPHF6 (Ac-VQIVYK-NH2) tau-hexapeptide (Homo sapiens, UniProt P10636); assay: AcPHF6 aggregation inhibition, Thioflavin T fluorescence; type: biochemical; details: 1 μM, non-toxic concentration; Figure 12
T1 construct: purchased Bachem (Bubendorf BL, Switzerland)
Protocol: This in vitro assay was performed using the N-acetylated and C-amidated hexapeptide AcPHF6 (Ac-VQIVYK-NH2), derived from the ^306VQIVYK^311 sequence found in the native […]. This region of the tau protein is involved in fibril aggregation processes and is commonly used as a model for screening tau aggregation inhibitors.
In brief, AcPHF6 peptide was dissolved in 50 mM phosphate buffer (pH 7.4) at a concentration of 1 mM and vortexed to obtain a homogeneous solution. For aggregation inhibition experiments, 100 μM AcPHF6 peptide was mixed with compounds 6 and incubated at 37 °C for 4 days. The degree of AcPHF6 aggregation was determined using Thioflavin-T fluorescence analyses.
Briefly, the screen of the styrylquinolines was performed based on Thioflavin T fluorescence. All assays were done on flat black 96-well plates. […] Immediately before the experiment, 1 μM heparin was added to initiate AcPHF6 aggregation. AcPHF6 alone in buffer reaction served as a control for the screen. Fluorescence values were taken at 24 h intervals for 72 h, at 37 °C and in replicates, using a microplate reader. […] All assays were performed at least twice to ensure reproducibility.

[3] = target: T2, Aβ1–42 peptide (Homo sapiens, UniProt P05067); assay: Aβ1–42 aggregation inhibition, Thioflavin T fluorescence; type: biochemical; details: 0.5 μM compound; Figure 11
T2 construct: amyloid β protein fragment 1–42 (MW = 4514.04); purchased Merck-Sigma-Aldrich
T2 sequence (P05067 672-713 limits assumed): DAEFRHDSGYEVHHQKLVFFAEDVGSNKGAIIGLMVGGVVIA
Protocol: A 0.5 mg/mL solution of Aβ1–42 peptide in 10% aqueous ammonium hydroxide was sonicated for 30 min to achieve monomerization. Solvent evaporation in a SpeedVac afforded a thin film that was dissolved in 60 mM NaOH, adjusting its concentration to 20 μM, as a stock solution. For aggregation inhibition experiments, 2 μM Aβ1–42 peptide was mixed with the styrylquinolines 6 and incubated for 4 days at 37 °C. The degree of Aβ aggregation was determined using Thioflavin-T fluorescence analysis.
All assays were done on flat black 96-well plates. […] Peptide Aβ1–42 alone in buffer reaction served as a control for the screen. Fluorescence values were measured at 37 °C in replicates using a microplate reader, with the measurement taken at 24 h intervals for 72 h. […] All assays were performed at least twice to ensure reproducibility.

[4] = target: T3, fibrils of β-amyloid peptide (human Aβ1–42) (Homo sapiens, UniProt P05067); assay: Fluorescence titration of sensors with β-amyloid fibrils (Kd by non-linear fitting); type: binding; details: for Kd: fibrils of β-amyloid peptide, sensor 1.0 × 10^−6 M, protein 0 to 2.0 × 10^−6 M, ICT band excitation/emission maxima, read-out: Binding constants values (Kd) and standard deviations
T3 construct: amyloid β protein fragment 1–42 (MW = 4514.04); purchased Merck-Sigma-Aldrich
T3 sequence (P05067 672-713 limits assumed): as above
Protocol: Amyloid fibrils from human Aβ1–42 peptide were prepared using a procedure that combines several protocols described in the literature. A 2.2 × 10^−4 M solution of commercially available Aβ1–42 peptide was prepared in a small volume of 100 mM sodium phosphate buffer (pH = 7.04) containing EDTA in concentration 10 mM. This solution was incubated at 37 °C during 72 h in a dry bath supported on an orbital shaker working at 200 rpm. […] Subsequently, 10 μL of the freshly prepared amyloid beta fibrils (c = 1.0 × 10^−4 M) were added to each of the solutions containing the sensors. After a stabilization period of 10 min after each fibril addition at 37 °C, and then equilibration time of 5 min at room temperature, fluorescence emission spectra were recorded for each sensor at their excitation maxima.

[5] = target: T4, neurofibrillary tangles (phosphorylated tau) (Homo sapiens, UniProt P10636); assay: Ex vivo staining of temporal neocortex of an Alzheimer's disease patient, AT8 antibody co-labelling; details: temporal neocortex of an AD patient; AT8 antibody detects phosphorylated tau
T4 sequence (P10636 623-758 limits assumed): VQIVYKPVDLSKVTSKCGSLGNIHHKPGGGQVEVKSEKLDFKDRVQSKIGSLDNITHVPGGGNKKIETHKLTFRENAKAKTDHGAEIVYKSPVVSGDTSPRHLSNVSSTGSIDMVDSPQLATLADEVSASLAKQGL
Protocol: (§1) AD human tissue samples were analyzed within the context of a previous study that utilized fixed coronal sections to investigate the progression of Alzheimer’s disease. Brain tissue samples from AD patients were obtained from the Banco de Tejidos Fundación CIEN (Dr. A. Rábano, Área de Neuropatología, Centro Alzheimer, Fundación Reina Sofía, Madrid, Spain). Immediately after removal, the brains were fixed in cold 4% paraformaldehyde in 0.1 M phosphate buffer (pH 7.4). After 2 h, the tissue was sectioned into small blocks and post-fixed in the same medium at 4 °C for 24–48 h. Serial coronal sections (50 μm thick) were prepared using a vibratome (St. Louis, MO, USA), cryoprotected in a 30% sucrose solution in 0.1 M phosphate buffer and stored in an ethylene glycol/glycerol solution at −20 °C until use. […]
(§2) Image acquisition was performed with a Zeiss LSM 710 confocal laser scanning system (Carl Zeiss Microscopy GmbH, Jena, Germany). They were recorded at 0.5 μm intervals (63 × objective) through separate channels, and ZEN 2012 software (Zeiss) was then used to construct composite images from each optical series by combining the images recorded through the different channels (image resolution 1024 × 1024 pixels; pixel size 188 nm). […]

[6] = target: T5, amyloid-beta plaques (Homo sapiens, UniProt P05067); assay: Ex vivo staining of temporal neocortex of an Alzheimer's disease patient, amyloid-beta antibody co-labelling; details: temporal neocortex of an AD patient; 20 μM compound, 2 h
T5 sequence (P05067 672-711 limits assumed): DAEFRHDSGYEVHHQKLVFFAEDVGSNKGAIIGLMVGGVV
Protocol: as §1, §2

[7] = system: HEK293-Tau3R cells; assay: Cell viability, MTT assay; type: cell-based, human; details: 10 to 50 nM for 24 h
Protocol: Cells were cultured in DMEM medium supplemented with 10% fetal bovine serum, 1 mM pyruvate, 2 mM glutamine and 0.2 mg/mL of the antibiotic zeocin. Cultures were maintained at 37 °C in a humidified atmosphere containing 5% CO2.
HEK293-Tau3R cells were seeded into 96-well polystyrene plates at a density of 20,000 cells per well and incubated at 37 °C for 24 h to allow cell adhesion. […] Cell viability was assessed by measuring metabolic activity through the reduction of MTT (3-(4,5-dimethylthiazol-2-yl)-2,5-diphenyltetrazolium bromide) to insoluble formazan. Absorbance values were measured at 550 nm using a microplate reader.

[8] = system: Aβ42; design: method as in PMID 24900645; details: ThT-based fluorometric assay; cited from earlier work
[9] = target: T5, amyloid-beta plaques; assay: Ex vivo staining of somatosensory cortex of APP/PS1 transgenic mice (confocal microscopy); details: plaques most distinctly labeled at 458 nm excitation, also 488 and 555 nm, none at 594 or 405 nm
Excerpt: Compound 6b was chosen for an initial labeling study by assessing its binding properties in the somatosensory cortex of APP/PS1 transgenic mice, a model of Alzheimer’s disease that develops amyloid-beta deposits in the brain from 6 to 7 months of age. […] Amyloid-beta plaques were most distinctly labeled at an excitation wavelength of 458 nm, with effective staining also being observed at 488 nm and 555 nm (Figure 8A–D). In contrast, no staining was detected when exciting at 594 nm or 405 nm (Figure 8E,F).
The free-floating sections were rinsed in 0.1 M phosphate buffer (PB) and incubated for 2 h at room temperature with a 20 μM solution of each compound 6, prepared by diluting a 1.0 × 10^−4 M stock solution in DMSO with phosphate buffer. After incubation, the sections were rinsed again in 0.1 M phosphate buffer, mounted using ProLong Gold Antifade Reagent (Invitrogen Corporation, Carlsbad, CA, USA), and stored at −20 °C.
as §2

[10] = target: T4, neurofibrillary tangles (phosphorylated tau); design: method as in PMID 16914838; details: brain samples from AD patients; cited from earlier work
[11] = target: β-amyloid protein; details: read-out: ThT-β-amyloid protein dissociation constant Kd, cited from earlier work

## CC(=O)OCCN(CCOC(C)=O)c1ccc(/C=C/c2ccc3cc(C=C(C#N)C#N)ccc3n2)cc1 [6e, (E)-((4-(2-(6-(2,2-Dicyanovinyl)quinolin-2-yl)vinyl)phenyl)azanediyl)bis(ethane-2,1-diyl) diacetate]
[1]
  Caspase-3 activation induced by okadaic acid: significantly reduced
  Decrease of caspase-3 activity compared to cells treated with okadaic acid alone: very similar results
[2]
  AcPHF6 aggregation inhibition, ranking: best result
[3]
  Aβ1–42 aggregation inhibition, ranking: most active compound
[4]
  Kd: 10.2 ± 1.53 µM

## N#CC(C#N)=Cc1ccc2nc(/C=C/c3ccc(N4CCCCC4)cc3)ccc2c1 [6c, (E)-2-((2-(4-(Piperidin-1-yl)styryl)quinolin-6-yl)methylene)malononitrile]
[5]
  Labeling of neurofibrillary tangles: did not label neurofibrillary tangles
[4]
  Kd: 8.19 ± 0.61 µM
[6]
  Labeling of amyloid-beta plaques: specifically labeled amyloid-beta plaques

## C=C1[C@@H](O)[C@@H]2O[C@]3(CC[C@H](/C=C/[C@@H](C)[C@@H]4CC(C)=C[C@@]5(O[C@H](C[C@@](C)(O)C(=O)O)CC[C@H]5O)O4)O3)CC[C@H]2O[C@@H]1[C@@H](O)C[C@H](C)[C@H]1O[C@@]2(CCCCO2)CC[C@H]1C [okadaic acid, reference compound]
[1]; okadaic acid 10–50 nM
  Concentration from which caspase 3 activity began to rise: ≥ 25 nM
[7]
  Concentrations at which a marked decline in cell viability was observed: above 30 nM

## CN(C)c1ccc(/C=C/c2ccc3cc(C=C(C#N)C#N)ccc3n2)cc1 [6a, (E)-2-((2-(4-(Dimethylamino)styryl)quinolin-6-yl)methylene)malononitrile]
[4]
  Kd: 2.43 ± 0.32 µM

## Cc1ccc2nc(/C=C/c3ccc(N)cc3)ccc2c1 [A]
[8]
  Inhibition of Aβ42 aggregation: moderate fibrillization inhibitor and amyloid binder

## (E)-2-((2-(2-(4-(Dimethylamino)naphthalen-1-yl)vinyl)quinolin-6-yl)-methylene)malononitrile [6g]
[1]
  Caspase-3 activation induced by okadaic acid: significantly reduced
  Decrease of caspase-3 activity compared to cells treated with okadaic acid alone: more than 50%
[4]; excitation wavelength characteristic of each compound, Figure 6
  Enhancement of fluorescence emission in the presence of beta-amyloid protein fibrils: greater difficulty in binding to the beta sheet structure of the protein

## N#CC(C#N)=Cc1ccc2nc(/C=C/c3ccc(N4CCOCC4)cc3)ccc2c1 [6d, (E)-2-((2-(4-Morpholinostyryl)quinolin-6-yl)methylene)malononitrile]
[1]
  Caspase-3 activation induced by okadaic acid: significantly reduced
[4]
  Kd: 6.6 ± 0.79 µM

## CCN(CC)c1ccc(/C=C/c2ccc3cc(C=C(C#N)C#N)ccc3n2)cc1 [6b, (E)-2-((2-(4-(Diethylamino)styryl)quinolin-6-yl)methylene)malononitrile]
[5]
  Labeling of neurofibrillary tangles: did not label neurofibrillary tangles
[1]
  Caspase-3 activation induced by okadaic acid: significantly reduced
[9]
  Labeling of amyloid-beta deposits: specific binding to β-sheet amyloid structures
[4]
  Kd: 7.93 ± 0.63 µM
[6]
  Labeling of amyloid-beta plaques: specifically labeled amyloid-beta plaques

## Thioflavin S
[10]
  Binding to beta-sheet structures and phosphorylated tau: bind both beta-sheet structures and phosphorylated tau

## Cc1ccc2c(c1)sc(-c1ccc(N(C)C)cc1)[n+]2C [ThT, Thioflavin T]
[11]; ref 57
  Kd: 0.8 µM
[11]; ref 58
  Kd: 2.56 µM
[11]; ref 59
  Kd: 30.4 µM
[11]; ref 60
  Kd: 46 µM
